# Results reported in paper PMC8145986, “In Vitro Enzymatic and Kinetic Studies, and In Silico Drug-Receptor Interactions, and Drug-Like Profiling of the 5-Styrylbenzamide Derivatives as Potential Cholinesterase and β-Secretase Inhibitors with Antioxidant Properties” (Antioxidants, 2021).
# Target: T1, BChE (Homo sapiens, UniProt P06276)
# T1 construct: purchased Cloud-Clone Corp. (via Biocom Africa (Pty) Ltd.)
# Test: biochemical
# Settings: mean ± SD of three independent experiments
# Experimental: The melting point values of the test compounds were recorded on a Thermocouple digital melting point apparatus (Mettler Toledo LLC, Columbus, OH, USA). The infrared (IR) spectra were recorded using the thin-film method on a Bruker VERTEX 70 FT-IR Spectrometer (Bruker Optics, Billerica, MA, USA) equipped with an ATR (diamond attenuated total reflectance) accessory. Merck kieselgel 60 (0.063–0.200 mm) (Merck KGaA, Frankfurt, Germany) was used as a stationary phase for column chromatography. The ^1H-NMR and ^13C-NMR spectra of the prepared compounds were obtained as deuterated dimethyl sulfoxide ((CD3)2SO) solutions using Agilent 500 MHz NMR spectrometer (Agilent Technologies, Oxford, UK) operating at 500 MHz and 125 MHz for ^1H and ^13C, respectively. The chemical shifts are quoted relative to tetramethylsilane (TMS) used as an internal reference standard (δ = 0.00 ppm) or a residual protonated solvent. The high-resolution mass spectra were recorded at an ionization potential of 70 eV using Micromass Autospec-TOF (double focusing high resolution) instrument (Waters Corp., Milford, MA, USA). The synthesis and analytical data for 2-amino-5-iodobenzamide (1) have been reported in our previous study. Recombinant human AChE (BioLegend) and BChE (Cloud-Clone Corp.) were purchased via Biocom Africa (Pty) Ltd. (Centurion, Pretoria, South Africa).
# AChE and BChE were used to determine cholinesterase activities spectrophotometrically using […] as substrates, respectively, following a modification of the Ellman’s method, as described in our previous study, and the reactions were performed in triplicate at 37 °C in a 96-well plate. […] A multi-channel pipette was used for the addition of reagents to the wells.
# A total of 8.0 μL of the test compound and 2.0 μL of BChE (0.02 mg/mL) was added to each of the designated wells of the 96-well plate, and the mixtures were incubated at room temperature for 30 min. Tris buffer (70 μL) was added to each well containing the reaction mixture and incubation was continued for a further 10 min at this temperature, which was followed by the addition of 10 μL solution of 5,5′-dithiobis-(2-nitrobenzoic acid) (DTNB) (3 mM in Tris buffer, 50 mM, pH 7.7) and butyrylcholine iodide (5 mM in Tris buffer, 50 mM, pH 7.7) to each well to initiate the reaction. […] The IC50 and standard deviation values using the Graph Pad Prism.
# T1 sequence (P06276 29-602): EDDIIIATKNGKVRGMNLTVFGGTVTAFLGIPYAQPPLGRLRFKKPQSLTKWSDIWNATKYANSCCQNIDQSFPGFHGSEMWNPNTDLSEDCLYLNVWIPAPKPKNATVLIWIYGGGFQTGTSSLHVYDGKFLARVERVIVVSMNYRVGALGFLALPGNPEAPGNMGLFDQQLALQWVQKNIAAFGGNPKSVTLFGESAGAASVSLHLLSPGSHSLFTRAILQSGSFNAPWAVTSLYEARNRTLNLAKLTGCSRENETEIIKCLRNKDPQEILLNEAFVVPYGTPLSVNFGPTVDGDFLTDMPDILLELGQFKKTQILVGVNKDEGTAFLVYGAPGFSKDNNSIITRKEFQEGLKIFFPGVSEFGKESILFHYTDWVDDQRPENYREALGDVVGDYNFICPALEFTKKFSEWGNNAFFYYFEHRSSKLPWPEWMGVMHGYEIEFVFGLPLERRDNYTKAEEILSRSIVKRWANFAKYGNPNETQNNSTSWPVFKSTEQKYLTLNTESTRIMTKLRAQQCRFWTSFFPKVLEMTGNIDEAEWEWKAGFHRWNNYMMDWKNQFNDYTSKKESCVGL
structure (smiles),measurement,value
"NC(=O)c1cc(/C=C/c2ccccc2)ccc1N [Compound 2a, (E)-2-Amino-5-styrylbenzamide]",IC50,4.7 ± 0.32 µM
